Type in all cases: physicochemical
Data set [1] in a line: Reversed-phase HPLC retention time as measure of lipophilicity. As to conditions: 15-min gradient from 5% MeCN/H2O to 95% MeCN/H2O with 0.1% formic acid, longer time = more lipophilic. An excerpt: Reversed‐phase HPLC retention times have proven to be a useful metric in determining the permeability of peptide macrocycles, as longer retention times typically equate to lower aqueous solubility, lower polarity, and increased lipophilicity.^[ [34], [35], [36], [37] ^] We were keen to use these HPLC retention times as a tool to assess the modulation of lipophilicity of the pseudo‐ring‐containing macrocycles. At the same time, we were interested in collecting solubility measurements for each macrocycle in both organic solvents (DMSO) as well as in water by visually determining each macrocycle's solubility. Our analysis began with the proteinogenic peptides 8 and 9 (Figure 6a). From the NMR studies, we recognized that these peptides had extremely poor solubility in d6 ‐DMSO (Figure 6c). […] HPLC analysis of these peptides confirmed that proteinogenic sequences correspond to extremely polar peptides. On a 15‐min HPLC gradient (from 5% MeCN/H2O to 95% MeCN/H2O with 0.1% formic acid), macrocycles 8 and 9 had HPLC retention times of 5.3 min and 4.8 min, respectively. Both 8 and 9 contain similar hydrogen bonding patterns, which is reflected in their similar hydrophilicities and HPLC retention times. Similar results were obtained with peptides 10 and 11 (Figure 6a). […]

A short description of data set [2]: Solubility in DMSO / organic solvents, determined visually. To be noted: room temperature, concentration of 10 mg/mL (ca. 10 mg/mL for NMR). An excerpt: We considered building blocks 1–3 as Fmoc‐protected pseudo‐ring building blocks that could be implemented into the Fmoc SPPS approach. The building block 1 was readily prepared from 3‐methyl SA (see Supporting Information). […] The building block 3 was made from commercially available 7‐carboxyindole over seven steps. This procedure was scalable and required no chromatographic purifications (see Supporting Information). With 1 and 3 in hand, we turned our attention towards their application in SPPS. […] Through cyclization of the linear pentafluorophenol (PFP) ester at high dilution in DMF with DIPEA, cyclic peptides 4 (25% overall yield) and 5 (28% overall yield) were obtained from building block 1. The cyclic peptides 6 (17% overall yield) and 7 (21% overall yield) were prepared from building block 3 (Figure 3a,b). At the same time, we synthesized cyclic peptide controls devoid of the pseudo‐ring core through a conventional Fmoc SPPS strategy (Figure 3c) with a Gly‐Gly in place of the pseudo‐ring scaffold. Similarly, we prepared peptides 10 and 11, which represent depeptidized homodetic sequences that contain a backbone‐embedded arene that lacks the X─H pseudo‐ring hydrogen bond donor (Figure 3c). To draw further comparison between pseudo‐ring‐containing and regular heterocycle‐containing peptides, we attempted to synthesize the indole‐containing analogues of peptides 6 and 7 (see Supporting Information). […] During the preparation of cyclic peptides 4–11, we noticed that macrocycles devoid of a pseudo‐ring were frustratingly insoluble in all organic solvents as well as in water. As result, these peptides (8–11) were purified by hot trituration in methanol/water. The solubilities/lipophilicities of peptides 4–11 will be discussed later in this paper. […]
Reversed‐phase HPLC retention times have proven to be a useful metric in determining the permeability of peptide macrocycles, as longer retention times typically equate to lower aqueous solubility, lower polarity, and increased lipophilicity.^[ [34], [35], [36], [37] ^] We were keen to use these HPLC retention times as a tool to assess the modulation of lipophilicity of the pseudo‐ring‐containing macrocycles. At the same time, we were interested in collecting solubility measurements for each macrocycle in both organic solvents (DMSO) as well as in water by visually determining each macrocycle's solubility. Our analysis began with the proteinogenic peptides 8 and 9 (Figure 6a). From the NMR studies, we recognized that these peptides had extremely poor solubility in d6 ‐DMSO (Figure 6c). […] HPLC analysis of these peptides confirmed that proteinogenic sequences correspond to extremely polar peptides. On a 15‐min HPLC gradient (from 5% MeCN/H2O to 95% MeCN/H2O with 0.1% formic acid), macrocycles 8 and 9 had HPLC retention times of 5.3 min and 4.8 min, respectively. Both 8 and 9 contain similar hydrogen bonding patterns, which is reflected in their similar hydrophilicities and HPLC retention times. Similar results were obtained with peptides 10 and 11 (Figure 6a). […] We were keen to decipher whether the inclusion of either “open” or “closed” pseudo‐ring residues could lead to noticeable solubility and lipophilicity differences. […] This increase in […] likely results from the now exposed polar phenolic OH group paired with the disrupted IMHB networks that were present within the backbone of 4. […] With this in mind, we began analyzing our dicarbonyl‐containing macrocycles 6 and 7. […] Similarly, this marks the first instance in which we have been able to access a class of macrocycles with chameleonic behavior whereby we can reliably access both “open” and “closed” forms using pseudo‐rings. […] Unique to this series of macrocycles, the “open” pseudo‐ring macrocycle 7 is extremely hydrophilic.

A short description of data set [3]: Solubility in water, determined visually. As to conditions: concentration of 10 mg/mL. From the text:
We considered building blocks 1–3 as Fmoc‐protected pseudo‐ring building blocks that could be implemented into the Fmoc SPPS approach. The building block 1 was readily prepared from 3‐methyl SA (see Supporting Information). […] The building block 3 was made from commercially available 7‐carboxyindole over seven steps. This procedure was scalable and required no chromatographic purifications (see Supporting Information). With 1 and 3 in hand, we turned our attention towards their application in SPPS. […] Through cyclization of the linear pentafluorophenol (PFP) ester at high dilution in DMF with DIPEA, cyclic peptides 4 (25% overall yield) and 5 (28% overall yield) were obtained from building block 1. The cyclic peptides 6 (17% overall yield) and 7 (21% overall yield) were prepared from building block 3 (Figure 3a,b). At the same time, we synthesized cyclic peptide controls devoid of the pseudo‐ring core through a conventional Fmoc SPPS strategy (Figure 3c) with a Gly‐Gly in place of the pseudo‐ring scaffold. Similarly, we prepared peptides 10 and 11, which represent depeptidized homodetic sequences that contain a backbone‐embedded arene that lacks the X─H pseudo‐ring hydrogen bond donor (Figure 3c). […]

Entries after “also recorded” stand apart in the source; their conditions may differ. Where a SMILES comes first, the peptide text is derived from it.

Compound `CC[C@H](C)[C@@H]1NC(=O)c2cccc(c2O)CNC(=O)[C@H](Cc2ccccc2)NC(=O)CNC(=O)[C@H](C)NC1=O` [compound 4] (HELM PEPTIDE1{A.G.F.[O=C(c1cccc(CN[*:1])c1O)[*:2]].I}$PEPTIDE1,PEPTIDE1,1:R1-5:R2$$$V2.0) showed an HPLC retention time in data set [1] of 7.7 min. Also, in data set [2], the “Solubility in DMSO (d6-DMSO)” value is given as “readily soluble; also recorded: much more soluble in DMSO than their non‐pseudo‐ring counterparts”.

For the compound `C[C@@H]1NC(=O)[C@@H]2CCCN2C(=O)c2cccc(c2O)CNC(=O)[C@H](Cc2ccccc2)NC(=O)CNC1=O` [compound 5] (HELM PEPTIDE1{A.G.F.[O=C(c1cccc(CN[*:1])c1O)[*:2]].P}$PEPTIDE1,PEPTIDE1,1:R1-5:R2$$$V2.0), the “Solubility in DMSO (d6-DMSO)” value in data set [2] is “readily soluble; also recorded: much more soluble in DMSO than their non‐pseudo‐ring counterparts”.

In the case of `CC[C@H](C)[C@@H]1NC(=O)c2cccc(c2N)C(=O)CNC(=O)[C@H](Cc2ccccc2)NC(=O)CNC(=O)[C@H](C)NC1=O` [compound 6] (HELM PEPTIDE1{A.G.F.[Nc1c(C(=O)CN[*:1])cccc1C(=O)[*:2]].I}$PEPTIDE1,PEPTIDE1,1:R1-5:R2$$$V2.0), the “Solubility in DMSO (d6-DMSO)” value in data set [2] is given as “highly soluble”.

As to `C[C@@H]1NC(=O)[C@@H]2CCCN2C(=O)c2cccc(c2N)C(=O)CNC(=O)[C@H](Cc2ccccc2)NC(=O)CNC1=O` [compound 7] (HELM PEPTIDE1{A.G.F.[Nc1c(C(=O)CN[*:1])cccc1C(=O)[*:2]].P}$PEPTIDE1,PEPTIDE1,1:R1-5:R2$$$V2.0), the “Solubility in DMSO (d6-DMSO)” value in data set [2] is recorded as “highly soluble”. Besides, the “Solubility in H2O” value in data set [3] was “highly soluble”.

Take `CC[C@H](C)[C@@H]1NC(=O)CNC(=O)CNC(=O)[C@H](Cc2ccccc2)NC(=O)CNC(=O)[C@H](C)NC1=O` [compound 8] (HELM PEPTIDE1{A.G.F.G.G.I}$PEPTIDE1,PEPTIDE1,1:R1-6:R2$$$V2.0): in data set [1], the HPLC retention time came to 5.3 min. The “Solubility in DMSO (d6-DMSO)” value in data set [2] is reported as “could not be fully solubilized”.

Take `C[C@@H]1NC(=O)[C@@H]2CCCN2C(=O)CNC(=O)CNC(=O)[C@H](Cc2ccccc2)NC(=O)CNC1=O` [compound 9] (HELM PEPTIDE1{A.G.F.G.G.P}$PEPTIDE1,PEPTIDE1,1:R1-6:R2$$$V2.0): the “Solubility in DMSO (d6-DMSO)” value in data set [2] is given as “could not be fully solubilized”.

As for `CC[C@H](C)[C@@H]1NC(=O)c2cccc(c2)CNC(=O)[C@H](Cc2ccccc2)NC(=O)CNC(=O)[C@H](C)NC1=O` [compound 10] (HELM PEPTIDE1{[O=C(c1cccc(CN[*:1])c1)[*:2]].I.A.G.F}$PEPTIDE1,PEPTIDE1,1:R1-5:R2$$$V2.0), in data set [2], the “Solubility in DMSO (d6-DMSO)” value was “poorly soluble”.

Take `C[C@@H]1NC(=O)[C@@H]2CCCN2C(=O)c2cccc(c2)CNC(=O)[C@H](Cc2ccccc2)NC(=O)CNC1=O` [compound 11] (HELM PEPTIDE1{[O=C(c1cccc(CN[*:1])c1)[*:2]].P.A.G.F}$PEPTIDE1,PEPTIDE1,1:R1-5:R2$$$V2.0): the “Solubility in DMSO (d6-DMSO)” value in data set [2] is given as “could be solubilized in d6 ‐DMSO at room temperature only after sonication”.

(Values after paper PMC12043042, “Pseudo‐Ring Methodology to Control the Conformations of Macrocyclic Peptides” (Chemistry (Weinheim an Der Bergstrasse, Germany), 2025).)
